# Results taken from patent US4581225A, “Sustained release intranasal formulation and method of use thereof” (Eli Lilly and Company, priority 1985, dated 1986).
# Structures can show the parent of a compound that is named as a salt.
# How the values were obtained:
# [1] = test system: catechol-O-methyltransferase; conditions: background statement; cited from earlier work
# [2] = background statement; cited from earlier work
# [3] = dobutamine plasma levels in anesthetized rats after intravenous bolus and intranasal saline solution; format: in vivo; conditions: rat
# Protocol: According to the present invention, it has been unexpectedly discovered that a catecholamine can be formulated for nasal administration and upon administration achieve equivalent bioavailability as compared to intravenous administration. The purpose of the following study is to examine the bioavailability of the catecholamine dobutamine when administered intranasally and intravenously.
# Six male rats weighing 280 g were anesthetized with sodium pentobarbital (50 mg/kg I.P.). Three rats were dosed intravenously with dobutamine hydrochloride at 2.5 mg/kg. Blood samples were taken at 0.5, 2, 4, 6, 10, 15, 20 and 30 minutes for dobutamine plasma analysis. The three remaining rats received dobutamine at 2.5 mg/kg intranasally in a saline solution. Blood samples from these rats were taken at 1, 5, 10, 20, 30, 60 and 120 minutes.
# As is known, the one time intravenous administration of dobutamine hydrochloride at 2.5 mg/kg produced a very high dobutamine blood level (greater than 1000 ng/ml) within 30 seconds after administration. The duration of dobutamine in the blood as a result of this method of administration was brief however, lasting only for a period of approximately 30 minutes. For comparison, 1.456 mg of dobutamine hydrochloride was dissolved in 0.2 ml of saline solution and 0.1 ml of this solution was administered intranasally to a 291 g rat to provide a dose of 2.5 mg/kg. […] The intranasal delivery of dobutamine produced a moderate dobutamine blood level of 100 ng/ml after 20 minutes.
# The area under the curve (AUC) was calculated with computer assistance employing the trapezoidal method for each route of administration.
SMILES,biotransformation by catechol-O-methyltransferase [1],half-life in the body [2],"concentration at 20 min ([3]; blood, intranasal saline solution 2.5 mg/kg, after 20 minutes, read-out: dobutamine blood level)","concentration at 0.5 min ([3]; blood, intravenous bolus 2.5 mg/kg, within 30 seconds after administration, average of three, read-out: dobutamine blood level)","AUC at 0.5 h ([3]; plasma, IV bolus 2.5 mg/kg, trapezoidal method, sampled 0.5-30 minutes, read-out: Area Under the Curve (AUC) (converted))","AUC at 2 h ([3]; plasma, intranasal saline solution 2.5 mg/kg, trapezoidal method, sampled 1-120 minutes, read-out: Area Under the Curve (AUC) (converted))","persistence of effective blood level ([3]; intranasal saline solution 2.5 mg/kg, after two hours)",duration of dobutamine in the blood ([3]; intravenous bolus 2.5 mg/kg)
"CC(CCc1ccc(O)cc1)NCCc1ccc(O)c(O)c1 (racemic) [dobutamine, (+,-) 4-[2-[[3-(p-hydroxyphenyl)-1-methylpropyl]amino]ethyl]pyrocatechol]",very rapidly biotransformed,2 min,,,,,,
CC(CCc1ccc(O)cc1)NCCc1ccc(O)c(O)c1 (centres unmarked) [dobutamine hydrochloride],,,100 ng/mL,> 1000 ng/mL,37.1 ng·h/mL,188 ng·h/mL,effective blood level remained after two hours,approximately 30 minutes
